Test results as given in ChEMBL document CHEMBL5247655, “Simplified Derivatives of Tetrandrine as Potent and Specific P-gp Inhibitors to Reverse Multidrug Resistance in Cancer Chemotherapy” (J Med Chem, 2023).
Calls of active or inactive are those of the source. The rule behind the calls is not given here.

Legend:
ECa-109 cell line [1] = test: Induction of apoptosis in vincristine resistant human Eca-109 cells assessed as viable cells at 2.5 uM incubated for 24 hrs by AnnexinV-FITC/PI staining based flow cytometric analysis (reference value: 90.3%); format: functional; settings: read-out: Activity
[2] = Apparent volume of distribution during terminal phase in Sprague-Dawley rat at 30 mg/kg, po measured upto 24 hrs by UPLC/MS/MS analysis; format: ADME, organism-based; settings: in vivo, read-out: Vz/F
[3] = Cmax in Sprague-Dawley rat at 30 mg/kg, po measured upto 24 hrs by UPLC/MS/MS analysis; format: ADME, organism-based; parameters: time < 24 hrs, dose 30 mg/kg, route po; settings: in vivo
[4] = target: T1, ATP-dependent translocase ABCB1 (Homo sapiens, UniProt P08183); test: Inhibition of P-gp efflux in vincristine resistant human Eca-109 cells assessed as increase in rhodamine 123 fluorescence intensity incubated for 3 hrs; format: cell-based; settings: eca-109, 3 h, dose 0-45 µM
T1 sequence (P08183 whole entry): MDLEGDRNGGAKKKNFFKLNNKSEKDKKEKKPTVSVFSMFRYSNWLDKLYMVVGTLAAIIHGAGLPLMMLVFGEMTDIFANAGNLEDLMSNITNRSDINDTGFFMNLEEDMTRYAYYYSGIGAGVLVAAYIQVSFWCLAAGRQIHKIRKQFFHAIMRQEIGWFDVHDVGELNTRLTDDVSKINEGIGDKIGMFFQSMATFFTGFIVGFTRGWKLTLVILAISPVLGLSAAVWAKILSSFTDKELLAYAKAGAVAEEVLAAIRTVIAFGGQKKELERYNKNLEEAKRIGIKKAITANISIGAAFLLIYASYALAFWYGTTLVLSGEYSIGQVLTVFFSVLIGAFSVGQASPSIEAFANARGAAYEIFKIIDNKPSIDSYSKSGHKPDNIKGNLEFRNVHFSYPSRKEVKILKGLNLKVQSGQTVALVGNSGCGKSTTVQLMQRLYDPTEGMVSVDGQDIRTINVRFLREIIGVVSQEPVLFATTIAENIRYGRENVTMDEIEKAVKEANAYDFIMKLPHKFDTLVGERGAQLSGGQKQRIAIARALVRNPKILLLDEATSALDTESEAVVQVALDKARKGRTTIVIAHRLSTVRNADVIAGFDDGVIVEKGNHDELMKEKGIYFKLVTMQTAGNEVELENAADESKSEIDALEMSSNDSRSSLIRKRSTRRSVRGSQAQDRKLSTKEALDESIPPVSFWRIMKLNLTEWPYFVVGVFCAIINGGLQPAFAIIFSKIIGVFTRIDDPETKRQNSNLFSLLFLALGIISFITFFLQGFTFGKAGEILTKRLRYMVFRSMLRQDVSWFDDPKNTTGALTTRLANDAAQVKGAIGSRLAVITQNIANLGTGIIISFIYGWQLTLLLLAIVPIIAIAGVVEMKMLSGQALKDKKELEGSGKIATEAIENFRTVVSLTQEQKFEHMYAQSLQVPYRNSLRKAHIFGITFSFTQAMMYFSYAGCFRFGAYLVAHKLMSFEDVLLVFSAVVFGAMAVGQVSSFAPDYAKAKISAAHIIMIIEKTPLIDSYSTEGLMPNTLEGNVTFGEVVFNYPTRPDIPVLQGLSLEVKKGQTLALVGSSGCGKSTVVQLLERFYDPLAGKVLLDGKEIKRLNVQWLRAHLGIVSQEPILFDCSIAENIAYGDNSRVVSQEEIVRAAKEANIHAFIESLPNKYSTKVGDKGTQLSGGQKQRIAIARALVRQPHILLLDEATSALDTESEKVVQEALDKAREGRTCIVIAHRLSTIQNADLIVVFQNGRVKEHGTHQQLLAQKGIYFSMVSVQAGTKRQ

[5] = Half life in Sprague-Dawley rat at 30 mg/kg, po measured upto 24 hrs by UPLC/MS/MS analysis; format: ADME, organism-based; settings: in vivo
[6] = Half life in Sprague-Dawley rat at 3 mg/kg, iv measured upto 24 hrs by UPLC/MS/MS analysis; format: ADME, organism-based; settings: in vivo
ECa-109 cell line [7] = test: Induction of apoptosis in vincristine resistant human Eca-109 cells assessed as viable cells at 1 uM incubated for 24 hrs in presence of vincristine by AnnexinV-FITC/PI staining based flow cytometric analysis (reference value: 89.2%); format: functional; settings: read-out: Activity
ECa-109 cell line [8] = test: Reversal of vincristine-resistance in human Eca-109 cells assessed as fold reversal by measuring cell viability incubated for 48 hrs by CCK-8 method relative to vincristine alone; format: functional
ECa-109 cell line [9] = test: Cytotoxicity against vincristine resistant human Eca-109 cells incubated for 48 hrs by CCK-8 method; format: functional, cell-based; settings: ECa-109, 48 h
[10] = Cytotoxicity against human LX2 cells incubated for 48 hrs by CCK-8 method; format: toxicity, cell-based, LX-2
ECa-109 cell line [11] = test: Reversal of vincristine-resistance in human Eca-109 cells assessed as fold reversal by measuring cell viability at 1 uM incubated for 48 hrs by CCK-8 method relative to vincristine alone; format: functional
ECa-109 cell line [12] = test: Induction of apoptosis in vincristine resistant human Eca-109 cells assessed as late apoptotic cells at 1 uM incubated for 24 hrs by AnnexinV-FITC/PI staining based flow cytometric analysis (reference value: 7.19%); format: functional
[13] = target: T1, ATP-dependent translocase ABCB1; test: Inhibition of P-gp efflux in vincristine resistant human Eca-109 cells assessed as increase in colocalization of dox with nucleus at 1 to 5 uM incubated for 3 hrs by DAPI staining based laser-scanning confocal microscopy analysis; format: cell-based; settings: eca-109, 3 h, dose 1-5 µM
[14] = target: T1, ATP-dependent translocase ABCB1; test: Inhibition of P-gp efflux in vincristine resistant human Eca-109 cells assessed as effect on accumulation of calcein-AM; format: cell-based
[15] = target: T1, ATP-dependent translocase ABCB1; test: Inhibition of P-gp efflux in vincristine resistant human Eca-109 cells assessed as increase in intracellular accumulation of rhodamine123 at 1 to 5 uM incubated for 1 hr by flow cytometry analysis; format: cell-based; settings: eca-109, 1 h, dose 1-5 µM
ECa-109 cell line [16] = test: Cytotoxicity against vincristine resistant human Eca-109 cells incubated for 48 hrs by CCK-8 method relative to control; format: functional; parameters: concentration or dose not given beside the values
ECa-109 cell line [17] = test: Synergistic antitumor activity against in vincristine resistant p-gp overexpressing human Eca-109 cells xenografted in nude mouse assessed as increase in nuclear pyknosis at 30 mg/kg, IG administered every two days for 21 days in presence of vincristine by TUNEL analysis; format: functional, organism-based; settings: time 21.0 day
[18] = AUC (0 to infinity) in Sprague-Dawley rat at 30 mg/kg, po measured upto 24 hrs by UPLC/MS/MS analysis; format: ADME, organism-based; parameters: time < 24 hrs, dose 30 mg/kg, route po; settings: in vivo
ECa-109 cell line [19] = test: Synergistic antitumor activity against in vincristine resistant p-gp overexpressing human Eca-109 cells xenografted in nude mouse assessed as increase in apoptosis at 30 mg/kg, IG administered every two days for 21 days in presence of vincristine by TUNEL analysis; format: functional, organism-based; settings: time 21.0 day
[20] = target: T2, Broad substrate specificity ATP-binding cassette transporter ABCG2 (Homo sapiens, UniProt Q9UNQ0); test: Binding affinity to ABCG2 in vincristine resistant human Eca-109 cells assessed as stabilization of protein at 100 uM incubated for 30 mins by thermal shift assay; format: cell-based; settings: eca-109, 0.5 h
T2 sequence (Q9UNQ0 whole entry): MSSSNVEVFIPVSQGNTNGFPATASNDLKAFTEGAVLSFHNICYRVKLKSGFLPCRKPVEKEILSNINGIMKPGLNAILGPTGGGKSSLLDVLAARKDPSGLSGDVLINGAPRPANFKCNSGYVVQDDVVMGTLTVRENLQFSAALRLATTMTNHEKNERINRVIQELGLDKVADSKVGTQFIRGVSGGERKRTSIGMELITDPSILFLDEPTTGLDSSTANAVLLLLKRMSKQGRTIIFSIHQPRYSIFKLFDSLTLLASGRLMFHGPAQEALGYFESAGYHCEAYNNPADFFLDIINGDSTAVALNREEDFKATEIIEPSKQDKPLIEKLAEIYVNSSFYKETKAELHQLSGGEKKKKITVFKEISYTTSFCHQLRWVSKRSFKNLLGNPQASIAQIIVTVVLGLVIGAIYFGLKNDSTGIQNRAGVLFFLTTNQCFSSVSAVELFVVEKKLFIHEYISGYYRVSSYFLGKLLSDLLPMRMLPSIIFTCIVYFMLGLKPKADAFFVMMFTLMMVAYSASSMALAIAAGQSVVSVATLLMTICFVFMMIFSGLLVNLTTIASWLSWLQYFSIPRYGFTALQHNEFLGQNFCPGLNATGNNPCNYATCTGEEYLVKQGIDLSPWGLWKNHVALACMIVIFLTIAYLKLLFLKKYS

[21] = target: T1, ATP-dependent translocase ABCB1; test: Binding affinity to P-gp in vincristine resistant human Eca-109 cells assessed as stabilization of protein at 67 degree C at 100 uM incubated for 30 mins by thermal shift assay; format: cell-based; settings: eca-109, 0.5 h
ECa-109 cell line [22] = test: Induction of apoptosis in vincristine resistant human Eca-109 cells assessed as viable cells at 5 uM incubated for 24 hrs by AnnexinV-FITC/PI staining based flow cytometric analysis (reference value: 90.3%); format: functional; settings: read-out: Activity
ECa-109 cell line [23] = test: Reversal of VCR -resistance in human Eca-109 cells assessed as cell viability at 2.5 uM incubated for 48 hrs by CCK-8 method (reference value: 6830.0+/-537.0 nM); format: functional, cell-based; settings: ECa-109, 48 h
[24] = Cytotoxicity against human HK-2 cells incubated for 48 hrs by CCK-8 method; format: toxicity, cell-based
[25] = MRT (0 to infinity) in Sprague-Dawley rat at 3 mg/kg, iv measured upto 24 hrs by UPLC/MS/MS analysis; format: ADME, organism-based; settings: in vivo
[26] = AUMC (0 to infinity) in Sprague-Dawley rat at 30 mg/kg, po measured upto 24 hrs by UPLC/MS/MS analysis; format: ADME, organism-based; settings: in vivo
[27] = target: T1, ATP-dependent translocase ABCB1; test: Inhibition of P-gp efflux in vincristine resistant human Eca-109 cells assessed as increase in rhodamine 123 accumulation incubated for 3 hrs by DAPI staining based laser-scanning confocal microscopy analysis; format: cell-based; settings: eca-109, 3 h, at 1 to 5 µM, dose 1-5 µM

Vd/F [2]: 111 L/kg
Cmax [3]: 637 ng/mL
inhibition (INH) [4]: Dose-Dependent Effect
half-life [5]: 7.37 h
half-life [6]: 8.43 h
inhibition (INH) [13]: Active
inhibition (INH) [14]: Active
inhibition (INH) [15]: Active
AUC(0-inf) [18]: 2740 ng·h/mL
Activity [20]: Not Active
Activity [21]: Active
MRT inf [25]: 2.68 h
AUMC [26]: 131110.55 ng/mL.hr^2
inhibition (INH) [27]: Dose-Dependent Effect
SMILES: COc1cc2c(cc1OC)C(Cc1ccc(OC)c(OCc3ccccc3)c1)N(C)CC2 (configuration not stated)
viability at 2.5 µM (ECa-109 cell line [1]): 91.9%
viability at 1 µM (ECa-109 cell line [7]): 76.1%
fold change (FC) (ECa-109 cell line [8]): 690.6
IC50 (ECa-109 cell line [9]): > 100 µM
IC50 at 48 h [10]: > 50 µM
fold change (FC) (ECa-109 cell line [11]): 3.7
Activity (ECa-109 cell line [12]): 6.12%
Activity (ECa-109 cell line [16]): 95.3%
Activity (ECa-109 cell line [17]): Active
Activity (ECa-109 cell line [19]): Active
viability at 5 µM (ECa-109 cell line [22]): 90.8%
IC50 (ECa-109 cell line [23]): 0.0661 µM
IC50 at 48 h [24]: > 50 µM
